Data reported in ChEMBL document CHEMBL5724914, “Linking interpersonal differences in gut microbiota composition and drug biotransformation activity” (2024).

Assays:
[1] = The drug is tested on WLS-350 corresponding to human gut metagenome with ENA study accession number: PRJEB37062 and ENA sample accession number: ERS12561789 for biotransformation under anaerobic condition. The drug concentrations were measured over 9 timepoints collected between 0 and 24 hours of incubation by liquid-chromatography-coupled mass spectrometry (LC–MS); conditions: 2 µM
[2] = The drug is tested on WLS-220 corresponding to human gut metagenome with ENA study accession number: PRJEB37062 and ENA sample accession number: ERS12561769 for biotransformation under anaerobic condition. The drug concentrations were measured over 9 timepoints collected between 0 and 24 hours of incubation by liquid-chromatography-coupled mass spectrometry (LC–MS); conditions: 2 µM
[3] = The drug is tested on WLS-082 corresponding to human gut metagenome with ENA study accession number: PRJEB37062 and ENA sample accession number: ERS12561751 for biotransformation under anaerobic condition. The drug concentrations were measured over 9 timepoints collected between 0 and 24 hours of incubation by liquid-chromatography-coupled mass spectrometry (LC–MS); conditions: 2 µM
[4] = The drug is tested on WLS-039 corresponding to human gut metagenome with ENA study accession number: PRJEB37062 and ENA sample accession number: ERS12561746 for biotransformation under anaerobic condition. The drug concentrations were measured over 9 timepoints collected between 0 and 24 hours of incubation by liquid-chromatography-coupled mass spectrometry (LC–MS); conditions: 2 µM
[5] = human gut metagenome, 24 h, 2 µM
[6] = human gut metagenome, 24 h, 2 µM; remark: listed apart in the source
[7] = human gut metagenome, 24 h, 2 µM; remark: listed apart in the source
[8] = human gut metagenome, 24 h, 2 µM; remark: listed apart in the source
[9] = human gut metagenome, 24 h, 2 µM; remark: listed apart in the source
[10] = human gut metagenome, 24 h, 2 µM; remark: listed apart in the source
[11] = human gut metagenome, 24 h, 2 µM; remark: listed apart in the source
[12] = human gut metagenome, 24 h, 2 µM; remark: listed apart in the source
[13] = human gut metagenome, 24 h, 2 µM; remark: listed apart in the source
Further: call rule not given here.

For `OC(CCN1CCCCC1)(c1ccccc1)C1CC2C=CC1C2` (centres undefined) [BIPERIDEN], the “Bacterial Biotransformation” value [1] was “Compound NOT metabolized”, the “Bacterial Biotransformation” value [2] was “Compound NOT metabolized” and the “Bacterial Biotransformation” value [3] was “Compound NOT metabolized”. The “Bacterial Biotransformation” value [4] was “Compound NOT metabolized”, the “Bacterial Biotransformation” value [5] was “Compound NOT metabolized” and the “Bacterial Biotransformation” value [6] was “Compound NOT metabolized”. For the same compound, the “Bacterial Biotransformation” value [7] was “Compound metabolized”, the “Bacterial Biotransformation” value [8] was “Compound NOT metabolized” and the “Bacterial Biotransformation” value [9] was “Compound NOT metabolized”. The “Bacterial Biotransformation” value [10] was “Compound NOT metabolized”, the “Bacterial Biotransformation” value [11] was “Compound metabolized” and the “Bacterial Biotransformation” value [12] was “Compound metabolized”. For the same compound, the “Bacterial Biotransformation” value [13] was “Compound NOT metabolized”.

For `CN1C[C@H](C(=O)N[C@]2(C)O[C@@]3(O)[C@@H]4CCCN4C(=O)[C@H](Cc4ccccc4)N3C2=O)C=C2c3cccc4[nH]cc(c34)C[C@H]21.CN1C[C@H](C(=O)N[C@]2(C)O[C@@]3(O)[C@@H]4CCCN4C(=O)[C@H](Cc4ccccc4)N3C2=O)C=C2c3cccc4[nH]cc(c34)C[C@H]21.O=C(O)C(O)C(O)C(=O)O` [ERGOTAMINE TARTRATE], the “Bacterial Biotransformation” value [1] was “Compound metabolized”, the “Bacterial Biotransformation” value [4] was “Compound metabolized” and the “Bacterial Biotransformation” value [5] was “Compound NOT metabolized”. The “Bacterial Biotransformation” value [6] was “Compound metabolized”, the “Bacterial Biotransformation” value [7] was “Compound metabolized” and the “Bacterial Biotransformation” value [8] was “Compound metabolized”. The “Bacterial Biotransformation” value [10] was “Compound metabolized”, the “Bacterial Biotransformation” value [11] was “Compound metabolized” and the “Bacterial Biotransformation” value [12] was “Compound metabolized”. The “Bacterial Biotransformation” value [13] was “Compound metabolized”.

With `CN(C(=O)CN(CCO)CC(=O)N(C)C(C)(C)Cc1ccccc1)C(C)(C)Cc1ccccc1` [OXETHAZAINE] the “Bacterial Biotransformation” value [1] was “Compound metabolized”, the “Bacterial Biotransformation” value [2] was “Compound metabolized” and the “Bacterial Biotransformation” value [3] was “Compound metabolized”. The “Bacterial Biotransformation” value [4] was “Compound metabolized”, the “Bacterial Biotransformation” value [5] was “Compound metabolized” and the “Bacterial Biotransformation” value [6] was “Compound metabolized”. For the same compound, the “Bacterial Biotransformation” value [7] was “Compound metabolized”, the “Bacterial Biotransformation” value [8] was “Compound metabolized” and the “Bacterial Biotransformation” value [9] was “Compound metabolized”. The “Bacterial Biotransformation” value [10] was “Compound metabolized”, the “Bacterial Biotransformation” value [11] was “Compound metabolized” and the “Bacterial Biotransformation” value [12] was “Compound metabolized”. The “Bacterial Biotransformation” value [13] was “Compound metabolized”.

In the case of `CN1CCN(CC/C=C2/c3ccccc3Sc3ccc(S(=O)(=O)N(C)C)cc32)CC1` [THIOTHIXENE], the “Bacterial Biotransformation” value [1] is reported as “Compound metabolized”, the “Bacterial Biotransformation” value [2] is reported as “Compound metabolized” and the “Bacterial Biotransformation” value [3] is reported as “Compound metabolized”. The “Bacterial Biotransformation” value [4] was “Compound metabolized”, the “Bacterial Biotransformation” value [5] was “Compound metabolized” and the “Bacterial Biotransformation” value [6] was “Compound metabolized”. For the same compound, the “Bacterial Biotransformation” value [7] was “Compound metabolized”, the “Bacterial Biotransformation” value [8] was “Compound NOT metabolized” and the “Bacterial Biotransformation” value [9] was “Compound metabolized”. For the same compound, the “Bacterial Biotransformation” value [10] was “Compound metabolized”, the “Bacterial Biotransformation” value [11] was “Compound metabolized” and the “Bacterial Biotransformation” value [12] was “Compound metabolized”. For the same compound, the “Bacterial Biotransformation” value [13] was “Compound metabolized”.
